From publication PMC8642539, “The novel BET inhibitor UM-002 reduces glioblastoma cell proliferation and invasion” (Scientific Reports, 2021)
Where two headings read alike, the source gives them in different places.

Assays:
[1] = set-up: method as in PMID 26392221; settings: cited from earlier work
GBM22 cells [2] = assay: In vitro dose response, CellTiter-Glo ATP, GBM22; type: cell-based; settings: Homo sapiens, 72 h
Protocol: (§1) Figure 1 UM-002 reduces GBM cell proliferation in vitro. (A) Structure of UM-002. […] Reduction in ATP levels was measured using CellTiter-Glo after 72 h of compound treatment and luminescence was normalized to the positive control. Dose response curves were calculated using a variable slope (4 parameters) fit. EC50 and the percentage of positive control at EC50 was calculated for each compound.
(§2) The patient derived xenograft (PDX) glioblastoma cell lines, GBM22 and GBM39, were obtained from the Mayo Clinic Brain Tumor PDX national resource. Cells were cultured as previously described[39],[40]. Since genetic drift is known to occur with passage in vivo and in vitro, a stock of early passage tumor tissue is maintained in storage and xenograft lines are passaged a maximum of 20 times before restoration from early passage tissue. […]
(§3) PDX cells were plated at 3000 cells/well in a 384 well flat bottom plate, and adherent cultures were established overnight. […] Following a 72-h incubation, CellTiter-Glo (Promega, Wisconsin, USA) was used to measure ATP content and luminescence was read on an EnVision plate reader, as previously described. Luminescence was normalized to 10 µM Velcade as a positive control, and 0.1% DMSO as a negative control. Dose response curves were calculated in GraphPad PRISM (version 8.4.3) using a variable slope (four parameter) fit.

GBM22 cells [3] = assay: Cerebral brain organoid-GBM co-culture, proliferation and invasion; type: cell-based, human; settings: 9 days co-culture; JQ1 500 nM, MK-8628 1000 nM, UM-002 100 nM
Excerpt: On day 0 of organoid production, induced pluripotent stem cells (iPSCs), at ~ 80% confluence, were dissociated into small clumps with gentle cell dissociation reagent (StemCell Technologies, 07174) and plated into round-bottom, low-attachment 96 well plates (ThermoFisher, 174925; ~ 15,000 cells per well). Initial media, consisting of mTeSR Plus (Stem Cell Technologies, 05825) supplemented with 5 µm A-83 (Peprotech, 9094360) and 5 µm Dorsomorphin (Peprotech, 8666430), was replaced every other day starting at day 2 by removing half of the media in each well (100 µL) and replacing with fresh media three times. On day 8, media was changed to a base media of Neurobasal A media (Gibco, 10888022) with NeuroCult SM1 (StemCell Technologies, 05711), glutamax (Gibco, 35050061), and Pen/strep (Gibco, 15140122) supplemented with EGF (20 ng/ml; Alomone Labs, E-100) and FGF2 (20 ng/ml; Alomone Labs, F-170). Media was similarly exchanged every other day until day 20 when the mitogenic supplements were exchanged for differentiating factors: BDNF (20 ng/ml; Alomone Labs, B-250) and NT3 (20 ng/ml; Alomone Labs, N-260) in the same base media. After two weeks in differentiation media, organoids could be maintained in the base media for > 100 days[41]. […]

cerebral brain organoids = assay: Brain organoid viability (organoid volume and surface area) in co-culture; type: cell-based, human; settings: 9 days; JQ1 500 nM, MK-8628 1000 nM, UM-002 100 nM
Protocol: GBM22 cells were dissociated into a single cell suspension with Trypsin (Gibco, 15,400,054) and seeded (17,500 cells/well) into round-bottom, low-attachment 96-well plates containing a single mature organoid per well. Cells were seeded by removing 100 µL of media and replacing with 100 µL of cell suspension. GBM cells were allowed to settle around the organoid and attach overnight. After 24 h (day 1 of co-culturing) organoids were either fixed (see below) and stored in PBS as an untreated control or treated with compounds. For treatment, compounds were dissolved in DMSO and diluted in organoid maintenance media. […] On the first day of treatment, organoids were treated by removing half of the media (100 µL) and replacing with 100 µL of a 2 × compound solution. Compounds were renewed with 1 × solutions in the new media every other day following the normal media replacement regimen until the conclusion of the experiment.
Statistical comparisons performed using an unpaired, two-tailed t test or one-way ANOVA with Tukey HSD post-hoc.

recurrent GBM = tested on: recurrent GBM; set-up: method as in doi:10.1200/JCO.2016.34.15_suppl.e14123; settings: 12 recurrent GBM patients, study terminated; cited from earlier work
GBM39 cells = assay: In vitro dose response, CellTiter-Glo ATP, GBM39; type: cell-based; settings: Homo sapiens
Protocol: as §1, §2, §3

CC(=O)N1c2ccc(-c3ccc(CN4CCCCC4)cc3)cc2[C@H](Nc2ccccc2)C[C@H]1C [I-BET858]
Phenotype in mice [1]: autism spectrum disorder phenotype

Cc1sc2c(c1C)C(c1ccc(Cl)cc1)=N[C@@H](CC(=O)Nc1ccc(O)cc1)c1nnc(C)n1-2 [MK-8628]
EC50 (GBM22 cells [2]; read-out: GBM22 logEC50 (converted)): 1390 nM | EC50 (GBM22 cells [2]; CellTiter-Glo, 4 parameter fit, read-out: GBM22 EC50): 1390 nM | Number of invading GBM cells relative to DMSO control (GBM22 cells [3]): reduced | Total number of GBM cells relative to DMSO control (GBM22 cells [3]): reduced | Brain organoid viability, as determined by organoid volume and surface area (cerebral brain organoids): did not negatively impact | Progression-free survival (recurrent GBM): no increase in progression-free survival | EC50 (GBM39 cells; GBM39, 72 h, read-out: GBM39 logEC50 (converted)): 813 nM | EC50 (GBM39 cells; GBM39, 72 h, CellTiter-Glo, 4 parameter fit, read-out: GBM39 EC50): 812 nM
